Measurements from patent US11524966B1 (Valo Early Discovery, Inc., priority 2017, dated 2022).

The compounds below were run against T1, USP28 (His-tagged USP28-FL-mammalian) (Homo sapiens, UniProt Q96RU2) (assay: Ubiquitin-Rhodamine 110 Assay for USP28 Activity, Example A-1(a)). Details: Ubiquitin-Rhodamine 110 assay, Example A-1(a); read-out: USP28 A-1(a) IC50 range.
T1 construct: Expression of USP28 (1-1077)-TEV-6*His (pTT5 vector); made in house; host or cells: Expi293f cells (pTT5 vector)
T1 sequence (Q96RU2 1-1077): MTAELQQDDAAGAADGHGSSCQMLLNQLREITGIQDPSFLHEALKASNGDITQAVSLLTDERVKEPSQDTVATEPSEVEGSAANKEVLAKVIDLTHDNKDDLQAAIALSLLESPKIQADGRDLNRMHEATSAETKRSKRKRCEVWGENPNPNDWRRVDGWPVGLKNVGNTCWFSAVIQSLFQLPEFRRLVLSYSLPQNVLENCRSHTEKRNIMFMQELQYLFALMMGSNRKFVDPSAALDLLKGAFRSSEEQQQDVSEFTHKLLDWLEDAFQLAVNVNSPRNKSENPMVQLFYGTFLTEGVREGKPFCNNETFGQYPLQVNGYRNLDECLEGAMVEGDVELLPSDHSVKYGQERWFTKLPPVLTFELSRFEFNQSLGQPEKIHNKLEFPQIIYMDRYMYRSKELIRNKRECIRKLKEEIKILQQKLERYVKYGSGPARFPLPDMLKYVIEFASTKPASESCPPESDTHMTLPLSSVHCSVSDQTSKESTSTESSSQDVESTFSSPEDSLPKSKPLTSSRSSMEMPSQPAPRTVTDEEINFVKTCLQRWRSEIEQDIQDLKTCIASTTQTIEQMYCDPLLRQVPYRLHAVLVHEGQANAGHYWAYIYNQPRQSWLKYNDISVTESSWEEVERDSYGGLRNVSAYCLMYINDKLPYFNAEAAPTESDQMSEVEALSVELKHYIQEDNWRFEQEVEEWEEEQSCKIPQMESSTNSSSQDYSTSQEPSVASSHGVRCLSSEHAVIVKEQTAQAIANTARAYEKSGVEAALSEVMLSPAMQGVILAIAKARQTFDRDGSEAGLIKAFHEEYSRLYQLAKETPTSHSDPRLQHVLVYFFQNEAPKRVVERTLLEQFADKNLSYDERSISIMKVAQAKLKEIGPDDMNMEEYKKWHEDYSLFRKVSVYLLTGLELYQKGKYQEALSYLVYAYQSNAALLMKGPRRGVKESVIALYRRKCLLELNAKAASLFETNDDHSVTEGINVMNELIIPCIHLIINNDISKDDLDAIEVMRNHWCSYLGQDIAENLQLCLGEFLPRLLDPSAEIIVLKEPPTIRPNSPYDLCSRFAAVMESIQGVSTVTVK
Format: biochemical
Method in brief: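 Full-length His-tagged USP28 (1-1077, Expi293F-expressed; […]) was preincubated 30 min with compound (25 μM–1.3 nM, 10-point 3-fold) in 20 mM Tris-HCl pH 8.0, 3 mM BME, 0.03% BGG, 0.01% Triton X-100. Ub-Rh110 (25 nM) was then added for 45 min at room temperature, stopped with citric acid, and read by fluorescence (485/535 nm).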

Compared with `CO[C@H]1CN(c2nc3c(cc2F)C[C@@H](NC(=O)c2sc4nc(C)ccc4c2N)CC3)C[C@@H]1N` [Example 183, 3-amino-N-[(6S)-2-[(3S,4S)-3-amino-4-methoxypyrrolidin-1-yl]-3-fluoro-5,6,7,8-tetrahydroquinolin-6-yl]-6-methylthieno[2,3-b]pyridine-2-carboxamide], `CO[C@H]1CN(c2ccc3c(n2)CC[C@H](NC(=O)c2sc4nc(C)ccc4c2N)C3)C[C@]1(C)N` [Example 239, 3-amino-N-[(6S)-2-[(3S,4S)-3-amino-4-methoxy-3-methylpyrrolidin-1-yl]-5,6,7,8-tetrahydroquinolin-6-yl]-6-methylthieno[2,3-b]pyridine-2-carboxamide] is higher in IC50: 0.05 to 0.2 µM for the first, 0.2 to 2 µM for the second. The first is the more potent here.

Compared with `Cc1cc(C)c2c(N)c(C(=O)N[C@H]3COc4cc(N5CC[C@H]6CNC[C@H]65)ccc4C3)sc2n1` [Example 226, N-[(3R)-7-[(3aS,6aS)-octahydropyrrolo[2,3-c]pyrrol-1-yl]-3,4-dihydro-2H-1-benzopyran-3-yl]-3-amino-4,6-dimethylthieno[2,3-b]pyridine-2-carboxamide], `Cc1cc(C)c2c(N)c(C(=O)N[C@H]3CCc4nc(N5CC[C@H]6CNC[C@H]65)ccc4C3)sc2n1` [Example 218, N-[(6S)-2-[(3aS 6aS)-octahydropyrrolo[2,3-c]pyrrol-1-yl]-5,6,7,8-tetrahydroquinolin-6-yl]-3-amino-4,6-dimethylthieno[2,3-b]pyridine-2-carboxamide] is higher in IC50: 0.001 to 0.05 µM for the first, 0.05 to 0.2 µM for the second. The first is the more potent here.

`Cc1ccc2c(N)c(C(=O)N[C@H]3COc4cc(N5CC[C@@H]6CCNC[C@@H]65)ccc4C3)sc2n1` [Example 225] and `Cc1ccc2c(N)c(C(=O)N[C@H]3COc4cc(N5CC[C@H]6CNCC[C@H]65)ccc4C3)sc2n1` [Example 235, N-[(3R)-7-[(3aS,7aR)-octahydro-1H-pyrrolo[3,2-c]pyridin-1-yl]-3,4-dihydro-2H-1-benzopyran-3-yl]-3-amino-6-methylthieno[2,3-b]pyridine-2-carboxamide] fall in the same range of IC50: 0.001 to 0.05 µM for the first, 0.001 to 0.05 µM for the second.

Compared with `N#Cc1c(N2CC3CCC(C2)N3)cc(F)c2c1CC[C@@H](NC(=O)c1cnc3c(c1)[C@H]1C[C@H]1CN3)C2` [Example 198, (6aR,7aS)-N-[(2R)-5-cyano-6-{3,8-diazabicyclo[3.2.1]octan-3-yl}-8-fluoro-1,2,3,4-tetrahydronaphthalen-2-yl]-5H,6H,6aH,7H,7aH-cyclopropa[c]1,8-naphthyridine-2-carboxamide], `Cc1nc2sc(C(=O)N[C@H]3CCc4nc(N5CCNCC5)ccc4C3)c(N)c2cc1F` [Example 204, 3-amino-5-fluoro-6-methyl-N-[(6S)-2-(piperazin-1-yl)-5,6,7,8-tetrahydroquinolin-6-yl]thieno[2,3-b]pyridine-2-carboxamide] is lower in IC50: 0.2 to 2 µM for the first, 0.001 to 0.05 µM for the second.

`Cc1ccc2c(N)c(C(=O)N[C@H]3COc4cc(N5C[C@@H](N)C6(COC6)C5)ccc4C3)sc2n1` [Example 259, 3-amino-N-[(3R)-7-[(8S)-8-amino-2-oxa-6-azaspiro[3.4]octan-6-yl]-3,4-dihydro-2H-1-benzopyran-3-yl]-6-methylthieno[2,3-b]pyridine-2-carboxamide] and `Cc1ccc2c(N)c(C(=O)N[C@H]3COc4cc(N5CC6CCC[C@@]6(N)C5)ccc4C3)sc2n1` (stereo partly drawn) [Example 248, N-[(3R)-7-[(3aS)-3a-amino-octahydrocyclopenta[c]pyrrol-2-yl]-3,4-dihydro-2H-1-benzopyran-3-yl]-3-amino-6-methylthieno[2,3-b]pyridine-2-carboxamide] fall in the same range of IC50: 0.001 to 0.05 µM for the first, 0.001 to 0.05 µM for the second.

First: CO[C@@H]1CN(c2ccc3c(n2)CC[C@H](NC(=O)c2sc4nc(C)ccc4c2N)C3)C[C@@]1(C)N [Example 240, 3-amino-N-[(6S)-2-[(3R,4R)-3-amino-4-methoxy-3-methylpyrrolidin-1-yl]-5,6,7,8-tetrahydroquinolin-6-yl]-6-methylthieno[2,3-b]pyridine-2-carboxamide]
Second: Cc1ccc2c(N)c(C(=O)N[C@H]3COc4cc(N5CC[C@@H]6CNCC[C@@H]65)ccc4C3)sc2n1 [Example 236, N-[(3R)-7-[(3aR,7aS)-octahydro-1H-pyrrolo[3,2-c]pyridin-1-yl]-3,4-dihydro-2H-1-benzopyran-3-yl]-3-amino-6-methylthieno[2,3-b]pyridine-2-carboxamide]
The IC50 of the first is higher: 0.2 to 2 µM for the first, 0.001 to 0.05 µM for the second.

For `CCO[C@H]1CN(c2ccc3c(n2)OC[C@H](NC(=O)c2sc4nc(C)cnc4c2N)C3)C[C@@H]1N` [Example 182, 7-amino-N-[(3R)-7-[(3S,4S)-3-amino-4-ethoxypyrrolidin-1-yl]-2H,3H,4H-pyrano[2,3-b]pyridin-3-yl]-3-methylthieno[2,3-b]pyrazine-6-carboxamide], the IC50 was 0.2 to 2 µM.
